Laboratory results from publication PMC10272180, “Ancient medicinal plant rosemary contains a highly efficacious and isoform-selective KCNQ potassium channel opener” (Communications Biology, 2023).

Legend:
Assay type in all cases: cell-based
KCNQ3* (KCNQ3-A315T) = KCNQ3* (KCNQ3-A315T) (Homo sapiens, UniProt O43525, A315T); assay: TEVC of KCNQ3* homomers expressed in Xenopus laevis oocytes
KCNQ3*-G244A = KCNQ3*-G244A (Homo sapiens, UniProt O43525, A315T/G244A); assay: TEVC of mutant KCNQ3*-G244A in oocytes; conditions: 100 µM
Text: (§1) We generated cRNA transcripts encoding human KCNQ1, 2, 3, and 5 (wild-type and mutant) by in vitro transcription using the mMessage mMachine kit (Thermo Fisher Scientific, Waltham, MA, USA) according to manufacturer’s instructions, after vector linearization, from cDNA sub-cloned into expression vectors (pTLNx and pXOOM) incorporating Xenopus laevis β-globin 5’ and 3’ UTRs flanking the coding region to enhance translation and cRNA stability. Mutant KCNQ cDNAs were generated by Genscript (Piscataway, NJ, USA) and cRNAs made as above. We injected defolliculated stage V and VI Xenopus laevis oocytes (Xenoocyte, Dexter, MI, USA) with KCNQ cRNAs (2–10 ng) and incubated the oocytes at 16 °C in ND96 oocyte storage solution containing penicillin and streptomycin, with daily washing, for 2–4 days prior to two-electrode voltage-clamp (TEVC) recording.
We performed TEVC at room temperature using an OC-725C amplifier (Warner Instruments, Hamden, CT, USA) and pClamp10 software (Molecular Devices, Sunnyvale, CA, USA) 2–4 days after cRNA injection. We placed oocytes in a small-volume oocyte bath (Warner) and viewed them with a dissection microscope for cellular electrophysiology. We sourced chemicals from Sigma-Aldrich (St. Louis, MO, USA) and Combi-Blocks (San Diego, CA, USA). We studied effects of Salvia rosmarinus extracts and of compounds, solubilized directly in bath solution (in mM): 96 NaCl, 4 KCl, 1 MgCl2, 1 CaCl2, 10 HEPES (pH 7.6). We introduced extracts or compounds into the oocyte recording bath by gravity perfusion at a constant flow of 1 ml per minute for 3 min prior to recording. Pipettes were of 1-2 MΩ resistance when filled with 3 M KCl. We recorded currents in response to voltage pulses between −120 mV and +40 mV at 10 mV intervals from a holding potential of −80 mV, to yield current-voltage relationships and examine activation kinetics. We analyzed data using Clampfit (Molecular Devices) and Graphpad Prism software (GraphPad, San Diego, CA, USA), stating values as mean ± SEM. […]

KCNQ3*-P211A = KCNQ3*-P211A (Homo sapiens, UniProt O43525, A315T/P211A); assay: TEVC of mutant KCNQ3*-P211A in oocytes
Text: as §1
(§2) We performed TEVC at room temperature using an OC-725C amplifier (Warner Instruments, Hamden, CT, USA) and pClamp10 software (Molecular Devices, Sunnyvale, CA, USA) 2–4 days after cRNA injection. We placed oocytes in a small-volume oocyte bath (Warner) and viewed them with a dissection microscope for cellular electrophysiology. We sourced chemicals from Sigma-Aldrich (St. Louis, MO, USA) and Combi-Blocks (San Diego, CA, USA). We studied effects of Salvia rosmarinus extracts and of compounds, solubilized directly in bath solution (in mM): 96 NaCl, 4 KCl, 1 MgCl2, 1 CaCl2, 10 HEPES (pH 7.6). We introduced extracts or compounds into the oocyte recording bath by gravity perfusion at a constant flow of 1 ml per minute for 3 min prior to recording. Pipettes were of 1-2 MΩ resistance when filled with 3 M KCl. We recorded currents in response to voltage pulses between −120 mV and +40 mV at 10 mV intervals from a holding potential of −80 mV, to yield current-voltage relationships and examine activation kinetics. We analyzed data using Clampfit (Molecular Devices) and Graphpad Prism software (GraphPad, San Diego, CA, USA), stating values as mean ± SEM. We plotted raw or normalized tail currents versus prepulse voltage and fitted with a single Boltzmann function:1 g=(A1−A2)/1+exp[V1/2−V/Vs]y+A2 where g is the normalized tail conductance, A1 is the initial value at -∞, A2 is the final value at +∞, V1/2 is the half-maximal voltage of activation and Vs the slope factor. We fitted activation and deactivation kinetics with single exponential functions.

KCNQ3/5 = biological target: T1, KCNQ3/5 (Homo sapiens, UniProt O43525+Q9NR82); assay: TEVC of KCNQ3/5 heteromers expressed in Xenopus laevis oocytes
T1 construct: expressed in transfected cells; host or cells: Xenopus laevis oocytes co-injected with cRNAs
Text: as §1
as §2, with “We recorded currents in response to voltage pulses between −120 mV and +40 mV at 10 mV intervals from a holding potential of −80 mV, to yield current-voltage relationships and examine activation kinetics.” left out

KCNQ3*-R243A = KCNQ3*-R243A (Homo sapiens, UniProt O43525, A315T/R243A); assay: TEVC of mutant KCNQ3*-R243A in oocytes; conditions: 100 µM
Text: as §1
(§3) We performed TEVC at room temperature using an OC-725C amplifier (Warner Instruments, Hamden, CT, USA) and pClamp10 software (Molecular Devices, Sunnyvale, CA, USA) 2–4 days after cRNA injection. […] We recorded currents in response to voltage pulses between −120 mV and +40 mV at 10 mV intervals from a holding potential of −80 mV, to yield current-voltage relationships and examine activation kinetics. We analyzed data using Clampfit (Molecular Devices) and Graphpad Prism software (GraphPad, San Diego, CA, USA), stating values as mean ± SEM. […]

KCNQ3*-G245A = KCNQ3*-G245A (Homo sapiens, UniProt O43525, A315T/G245A); assay: TEVC of mutant KCNQ3*-G245A in oocytes; conditions: 100 µM
Text: as §1, §3

KCNQ3*-W265L = KCNQ3*-W265L (Homo sapiens, UniProt O43525, A315T/W265L); assay: TEVC of mutant KCNQ3*-W265L in oocytes
Text: as §1
as §2, with “We recorded currents in response to voltage pulses between −120 mV and +40 mV at 10 mV intervals from a holding potential of −80 mV, to yield current-voltage relationships and examine activation kinetics.” left out

[1] = 5 µM, post 3 hrs. incubation 30 µM Wortmannin

KCNQ3* (KCNQ3-A315T), sequence (O43525 whole entry A315T): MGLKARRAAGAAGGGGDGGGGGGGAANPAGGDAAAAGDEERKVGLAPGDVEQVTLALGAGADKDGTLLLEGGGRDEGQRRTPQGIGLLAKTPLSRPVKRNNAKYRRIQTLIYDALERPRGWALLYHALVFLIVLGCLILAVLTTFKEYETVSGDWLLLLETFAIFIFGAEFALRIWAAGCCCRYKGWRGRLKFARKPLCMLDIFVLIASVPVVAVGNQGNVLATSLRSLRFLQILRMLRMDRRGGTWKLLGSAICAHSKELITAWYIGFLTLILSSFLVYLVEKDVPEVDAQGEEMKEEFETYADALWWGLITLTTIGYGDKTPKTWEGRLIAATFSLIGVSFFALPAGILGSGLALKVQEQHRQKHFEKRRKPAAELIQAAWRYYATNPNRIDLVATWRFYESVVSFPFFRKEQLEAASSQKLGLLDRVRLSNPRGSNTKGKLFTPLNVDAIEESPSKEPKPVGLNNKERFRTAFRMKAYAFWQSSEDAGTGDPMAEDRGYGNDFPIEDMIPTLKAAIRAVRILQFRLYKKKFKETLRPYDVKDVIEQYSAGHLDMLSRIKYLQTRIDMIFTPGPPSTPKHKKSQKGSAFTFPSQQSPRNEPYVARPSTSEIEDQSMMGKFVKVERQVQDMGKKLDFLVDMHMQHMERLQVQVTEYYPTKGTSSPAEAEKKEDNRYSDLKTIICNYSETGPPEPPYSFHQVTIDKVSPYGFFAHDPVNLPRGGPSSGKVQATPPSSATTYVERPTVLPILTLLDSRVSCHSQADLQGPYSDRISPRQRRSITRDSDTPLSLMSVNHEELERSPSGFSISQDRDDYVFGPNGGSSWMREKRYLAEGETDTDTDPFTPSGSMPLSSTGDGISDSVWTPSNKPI

## CC(C)c1cc2c(c(O)c1O)[C@@]1(C(=O)O)CCCC(C)(C)[C@@H]1CC2 [Carnosic acid, carnosic acid]
KCNQ3* (KCNQ3-A315T); 0.1 µM
  V0.5 Normalized tail current: -55.21 ± 0.45 mV
KCNQ3* (KCNQ3-A315T); 1 µM
  V0.5 Normalized tail current: -59.60 ± 0.47 mV
KCNQ3* (KCNQ3-A315T); 3 µM
  V0.5 Normalized tail current: -63.92 ± 0.74 mV
KCNQ3* (KCNQ3-A315T); 3 µM, at −120 mV
  slowing of deactivation rate: > fourfold
KCNQ3* (KCNQ3-A315T); 3 µM, voltage-independent
  change of activation rate: doubled
KCNQ3* (KCNQ3-A315T); 5 µM
  Slope: 7.61 ± 0.94 mV
  V0.5 Normalized tail current: -63.93 ± 1.08 mV
KCNQ3* (KCNQ3-A315T); [1]
  Slope: 6.70 ± 0.56 mV
  V0.5 Normalized tail current: -46.82 ± 0.64 mV
KCNQ3* (KCNQ3-A315T); 5 µM, −60 mV
  time to saturation of current potentiation upon wash-in: around 150 s
KCNQ3* (KCNQ3-A315T); 10 µM
  V0.5 Normalized tail current: -73.28 ± 1.41 mV
KCNQ3* (KCNQ3-A315T); 30 µM
  V0.5 Normalized tail current: -92.58 ± 2.21 mV
KCNQ3* (KCNQ3-A315T); 100 µM
  Slope: 9.91 ± 0.62 mV
  V0.5 non-normalized tail current: -111.1 ± 5.75 mV
KCNQ3* (KCNQ3-A315T); 100 µM (hesperidin 30 µM)
  effect on EM of unclamped oocytes: hyperpolarized
KCNQ3* (KCNQ3-A315T); EC50 EM, EM of unclamped oocytes
  EC50: 1.19 ± 0.19 µM
KCNQ3* (KCNQ3-A315T); EC50 Fold change -60 mV, current increase at −60 mV
  EC50: 5.43 ± 0.37 µM
KCNQ3* (KCNQ3-A315T); EC50 V0.5 Activation, ΔV0.5act
  EC50: 18 ± 0.72 µM
KCNQ3*-G244A
  Slope: 11.55 ± 1.94 mV
  V0.5 Normalized tail current: -97.68 ± 3.18 mV
  carnosic acid effects compared with KCNQ3*: indistinguishably
KCNQ3*-P211A; 0.1 µM
  V0.5 Normalized tail current: -55.16 ± 1.00 mV
KCNQ3*-P211A; 1 µM
  V0.5 Normalized tail current: -59.20 ± 1.17 mV
KCNQ3*-P211A; 3 µM
  V0.5 Normalized tail current: -61.55 ± 1.44 mV
KCNQ3*-P211A; 10 µM
  V0.5 Normalized tail current: -78.35 ± 1.93 mV
KCNQ3*-P211A; 30 µM
  V0.5 Normalized tail current: -98.23 ± 4.44 mV
KCNQ3*-P211A; 100 µM
  V0.5 Normalized tail current: -110.7 ± 3.83 mV
KCNQ3*-P211A; EC50 EM
  EC50: 3.21 ± 0.21 µM
KCNQ3*-P211A; EC50 V0.5 Activation
  EC50: 15.25 ± 0.07 µM
KCNQ3*-P211A; dose-response
  carnosic acid efficacy and potency compared with KCNQ3*: very similarly
KCNQ3/5; 0.1 µM
  V0.5 Normalized tail current: -41.88 ± 0.50 mV
KCNQ3/5; 1 µM
  V0.5 Normalized tail current: -47.59 ± 0.51 mV
KCNQ3/5; 3 µM
  V0.5 Normalized tail current: -52.07 ± 0.47 mV
KCNQ3/5; 10 µM
  V0.5 Normalized tail current: -56.02 ± 0.57 mV
KCNQ3/5; 30 µM
  V0.5 Normalized tail current: -62.10 ± 0.87 mV
KCNQ3/5; 100 µM
  V0.5 Normalized tail current: -68.83 ± 1.11 mV
  channel opening: powerful opener
KCNQ3/5; EC50 EM
  EC50: 4.21 ± 0.16 µM
KCNQ3/5; EC50 V0.5 Activation
  EC50: 4.53 ± 0.11 µM
KCNQ3*-R243A
  Slope: 9.48 ± 0.54 mV
  V0.5 Normalized tail current: -64.93 ± 0.61 mV
KCNQ3*-G245A
  Slope: 12.79 ± 4.65 mV
  V0.5 Normalized tail current: -129.4 ± 1.24 mV
KCNQ3*-W265L; 0.1 µM
  V0.5 Normalized tail current: -75.60 ± 1.02 mV
KCNQ3*-W265L; 1 µM
  V0.5 Normalized tail current: -86.19 ± 1.09 mV
KCNQ3*-W265L; 3 µM
  V0.5 Normalized tail current: -96.66 ± 1.64 mV
KCNQ3*-W265L; 10 µM
  V0.5 Normalized tail current: -105.3 ± 2.56 mV
KCNQ3*-W265L; 100 µM
  V0.5 Normalized tail current: -146.0 ± 1.92 mV
KCNQ3*-W265L; EC50 EM
  EC50: 0.14 ± 0.03 µM
KCNQ3*-W265L; EC50 V0.5 Activation
  EC50: 2.11 ± 0.09 µM
KCNQ3*-W265L; dose-response
  sensitivity in terms of potency versus KCNQ3*: approximately fivefold
